Data on 48 compounds can be found in the Biogen ADME set (Fang et al. 2023).

For the data set the following is noted: for aqueous solubility: pH 6.8.

≈ marks a conversion by molar mass, not a printed value.

The term aqueous solubility denotes the concentration that dissolves in the medium under given conditions. Low readings indicate little dissolved substance, high ones much dissolved substance. For the compound `N#Cc1ccc2[nH]c(O)c(-c3ccc(CN4CCOCC4)cn3)c2c1`, the MDR1-MDCK efflux ratio came out at 26; the fraction unbound, rat plasma came to 0.118; the intrinsic clearance, human liver microsomes came out at 11.2 mL/min/kg; the intrinsic clearance, rat liver microsomes was 70.8 mL/min/kg. Also, the aqueous solubility is 25.9 µg/mL (≈ 77.6 µM).

`N=C1/C(=C\c2ccco2)C(=O)N=C2Sc3ccccc3N12` gave an aqueous solubility of 0.73 µg/mL (≈ 2.47 µM).

On to `Cc1noc(C)c1-c1cc(-c2ccccc2Cl)nc(C2CC2)n1`, for which the MDR1-MDCK efflux ratio is 0.516; the intrinsic clearance, human liver microsomes is 21.8 mL/min/kg; the intrinsic clearance, rat liver microsomes came out at 145 mL/min/kg.

With `CC(=O)N1CCC(C(=O)Nc2nccs2)(c2ccccc2)CC1`, the MDR1-MDCK efflux ratio came to 39.4; the intrinsic clearance, human liver microsomes was determined as 5.73 mL/min/kg; the intrinsic clearance, rat liver microsomes was 236 mL/min/kg; the aqueous solubility came out at 62.3 µg/mL (≈ 189 µM).

As to `O=C(CSc1nnc(-c2cccs2)[nH]1)N1CCCCCC1`, the MDR1-MDCK efflux ratio came to 2.11; the intrinsic clearance, human liver microsomes is 39.4 mL/min/kg; the intrinsic clearance, rat liver microsomes was determined as 370 mL/min/kg; the aqueous solubility was 27.6 µg/mL (≈ 85.6 µM).

As to `Clc1ccc(-c2ccc(CNCC3CCCO3)o2)c(Cl)c1` (stereo unspecified), the MDR1-MDCK efflux ratio was determined as 0.624; the intrinsic clearance, human liver microsomes turned out to be 55.4 mL/min/kg; the intrinsic clearance, rat liver microsomes came to 1050 mL/min/kg; the aqueous solubility was determined as 30.4 µg/mL (≈ 93.3 µM).

As for `O=C(Nc1cnc2ccccc2n1)c1ccncc1`, the MDR1-MDCK efflux ratio worked out at 0.578; the intrinsic clearance, human liver microsomes was determined as 6.67 mL/min/kg; the intrinsic clearance, rat liver microsomes was determined as 127 mL/min/kg.

Consider `COc1ccccc1-n1ncc2c(=O)[nH]c(SC(C)c3ccccc3)nc21` (stereo unspecified), for which the intrinsic clearance, human liver microsomes turned out to be 224 mL/min/kg and the intrinsic clearance, rat liver microsomes stood at 1180 mL/min/kg.

Regarding `Cc1ccc(S(=O)(=O)N2CCC[C@H](C(=O)NC3CCOCC3)C2)cc1`, the MDR1-MDCK efflux ratio is 20.9; the intrinsic clearance, human liver microsomes was at most 4.74 mL/min/kg; the intrinsic clearance, rat liver microsomes was determined as 581 mL/min/kg; the aqueous solubility was determined as 54.1 µg/mL (≈ 148 µM).

In the case of `O=C(Nc1ccc(C(=O)O)c(O)c1)c1ccc(NC(=O)c2cccs2)cc1`, the MDR1-MDCK efflux ratio worked out at 0.572; the intrinsic clearance, human liver microsomes was at most 4.74 mL/min/kg; the intrinsic clearance, rat liver microsomes was at most 10.7 mL/min/kg; the aqueous solubility worked out at 54.3 µg/mL (≈ 142 µM).

In the case of `Cc1cnn(CC2CC2)c1NC(=O)/C=C/c1ccccc1`, the MDR1-MDCK efflux ratio was determined as 2.67; the intrinsic clearance, human liver microsomes was found to be 13.8 mL/min/kg; the intrinsic clearance, rat liver microsomes stood at 318 mL/min/kg; the aqueous solubility amounted to 32.7 µg/mL (≈ 116 µM).

`COc1nc2c(cc1CNC(=O)N1CC[C@@H](O)C1)C(=O)N(C1CCCC1)C2`: the MDR1-MDCK efflux ratio came out at 32; the intrinsic clearance, human liver microsomes is at most 4.74 mL/min/kg; the intrinsic clearance, rat liver microsomes is at most 10.7 mL/min/kg.

Take `CCCCCCCC/C(=C\CCCCCCCC(=O)O)[N+](=O)[O-]`: the intrinsic clearance, human liver microsomes was 42.9 mL/min/kg; the intrinsic clearance, rat liver microsomes was 84.9 mL/min/kg; the aqueous solubility is 12.7 µg/mL (≈ 38.8 µM).

Turning to `N#Cc1ccc2nc(NCCn3ccnc3)ccc2c1`, the MDR1-MDCK efflux ratio stood at 4.78; the intrinsic clearance, human liver microsomes turned out to be 6.36 mL/min/kg; the intrinsic clearance, rat liver microsomes amounted to 54.5 mL/min/kg.

For `CCCn1cnnc1CN(C)Cc1cc(C(C)C)on1`, the MDR1-MDCK efflux ratio was 15.3; the intrinsic clearance, human liver microsomes is at most 4.74 mL/min/kg; the intrinsic clearance, rat liver microsomes was 534 mL/min/kg.

As for `CCn1nccc1CNc1nnc(-c2ccc(OC)cc2)o1`, the MDR1-MDCK efflux ratio came out at 1.89; the intrinsic clearance, human liver microsomes was 6.62 mL/min/kg; the intrinsic clearance, rat liver microsomes turned out to be 76.2 mL/min/kg; the aqueous solubility was determined as 27.1 µg/mL (≈ 90.6 µM).

For the compound `NC1CC(NC(=O)c2ccc(-c3cn[nH]c3)cn2)C12CCC2` (stereo unspecified), the MDR1-MDCK efflux ratio is 8.96; the fraction unbound, human plasma is 0.513; the intrinsic clearance, human liver microsomes was 8.51 mL/min/kg.

As to `O=C(CCn1cncn1)N(CC#Cc1ccccc1)C1CCCC1`, the MDR1-MDCK efflux ratio stood at 1.98; the intrinsic clearance, human liver microsomes was determined as 263 mL/min/kg; the intrinsic clearance, rat liver microsomes was 1350 mL/min/kg; the aqueous solubility is 22.5 µg/mL (≈ 69.7 µM).

For the compound `N#Cc1ccc(CNc2cnc3ccccc3c2)o1`, the MDR1-MDCK efflux ratio came to 0.343; the intrinsic clearance, human liver microsomes was determined as 187 mL/min/kg; the intrinsic clearance, rat liver microsomes was 238 mL/min/kg.

For `O=C(Cc1ccc2c(c1)OCCO2)NC1CCCCCC1`, the MDR1-MDCK efflux ratio stood at 0.619; the intrinsic clearance, human liver microsomes came out at 194 mL/min/kg; the intrinsic clearance, rat liver microsomes was 927 mL/min/kg; the aqueous solubility is 42.1 µg/mL (≈ 146 µM).

Take `COc1cc(OC)c2c(=O)cc(CCC(=O)O)oc2c1`: the intrinsic clearance, human liver microsomes is at most 4.74 mL/min/kg and the intrinsic clearance, rat liver microsomes is at most 10.7 mL/min/kg.

With `O=C(O)CNc1nc(-c2ccccc2)nc2ccccc12`, the MDR1-MDCK efflux ratio is 0.737; the intrinsic clearance, human liver microsomes was at most 4.74 mL/min/kg; the intrinsic clearance, rat liver microsomes was 29.4 mL/min/kg; the aqueous solubility worked out at 25.4 µg/mL (≈ 90.8 µM).

On to `CC(C)c1cc(C(=O)N2Cc3ccc(CN4CCN(C)CC4)cc3C2)c(O)cc1O`, for which the MDR1-MDCK efflux ratio was found to be 24.3; the intrinsic clearance, human liver microsomes was at most 4.74 mL/min/kg; the intrinsic clearance, rat liver microsomes amounted to 50.4 mL/min/kg; the aqueous solubility was 44.6 µg/mL (≈ 109 µM).

For `Cn1cc(C(C)(C)NC(=O)C#Cc2ccc3c(c2)OCO3)cn1`, the MDR1-MDCK efflux ratio was 3.89; the intrinsic clearance, human liver microsomes was at most 4.74 mL/min/kg; the intrinsic clearance, rat liver microsomes was determined as 51.1 mL/min/kg.

Turning to `CCc1ccccc1S(=O)(=O)NCCc1cn[nH]c1`, the MDR1-MDCK efflux ratio was 2.65; the intrinsic clearance, human liver microsomes was determined as 34.8 mL/min/kg; the intrinsic clearance, rat liver microsomes was 533 mL/min/kg.

As for `Cc1noc2nc(-c3ccccc3F)cc(C(=O)O)c12`, the aqueous solubility was determined as 39.1 µg/mL (≈ 144 µM).

Regarding `O=C(NCc1ccc(F)cc1)c1ccc(-n2ccnc2)nc1`, the MDR1-MDCK efflux ratio was 1.04; the intrinsic clearance, human liver microsomes is at most 4.74 mL/min/kg; the intrinsic clearance, rat liver microsomes is 30 mL/min/kg; the aqueous solubility is 70.8 µg/mL (≈ 239 µM).

With `CC(C)CCCNC(=O)c1[nH]ncc1Br`, the MDR1-MDCK efflux ratio came to 0.579; the intrinsic clearance, human liver microsomes came out at 16.5 mL/min/kg; the intrinsic clearance, rat liver microsomes amounted to 742 mL/min/kg.

As for `COc1ccc(OC)c(Cn2cnc3cn(C)nc3c2=O)c1`, the MDR1-MDCK efflux ratio came to 2.56; the intrinsic clearance, human liver microsomes was at most 4.74 mL/min/kg; the intrinsic clearance, rat liver microsomes worked out at 50.8 mL/min/kg.

Take `CC(C)c1c(-c2ccccc2)[n+]([O-])c2c([n+]1[O-])CCC2`: the intrinsic clearance, human liver microsomes was at most 4.74 mL/min/kg and the intrinsic clearance, rat liver microsomes amounted to 14.3 mL/min/kg.

As for `O=C(CC1CCCC1)NCc1nnc2n1CCC2`, the MDR1-MDCK efflux ratio was 51.7; the intrinsic clearance, human liver microsomes is at most 4.74 mL/min/kg; the intrinsic clearance, rat liver microsomes is at most 10.7 mL/min/kg; the aqueous solubility came out at 31.5 µg/mL (≈ 127 µM).

For `O=C(NCCc1ccc2c(c1)OCO2)C1CCCC1`, the MDR1-MDCK efflux ratio amounted to 0.69; the intrinsic clearance, human liver microsomes was determined as 27.6 mL/min/kg; the intrinsic clearance, rat liver microsomes was determined as 600 mL/min/kg; the aqueous solubility is 42.1 µg/mL (≈ 161 µM).

As to `COc1ccccc1N1CCN(c2nc(-c3ccc(C)cc3)cc(=O)[nH]2)CC1`, the MDR1-MDCK efflux ratio is 1.75 and the aqueous solubility worked out at 0.2 µg/mL (≈ 0.531 µM).

Turning to `CSCC(=O)N1CCN(C(=O)CSC)C2(CCCCC2)C1`, the MDR1-MDCK efflux ratio was 5.33; the intrinsic clearance, human liver microsomes was 57.8 mL/min/kg; the intrinsic clearance, rat liver microsomes is 868 mL/min/kg; the aqueous solubility was 50.5 µg/mL (≈ 153 µM).

Turning to `CCOC(=O)N1CCN(C(=O)Nc2cccc3c2CCCC3)CC1`, the MDR1-MDCK efflux ratio came to 1.68; the intrinsic clearance, human liver microsomes was determined as 37.6 mL/min/kg; the intrinsic clearance, rat liver microsomes was found to be 394 mL/min/kg; the aqueous solubility is 51.6 µg/mL (≈ 156 µM).

Take `Cc1cccc(-c2cccc(C(=O)NCCC3(O)CCCC3)c2)n1`: the MDR1-MDCK efflux ratio stood at 2.77; the intrinsic clearance, human liver microsomes came to 21.6 mL/min/kg; the intrinsic clearance, rat liver microsomes was determined as 2910 mL/min/kg.

`CN1C(=O)[C@@H](NC(=O)c2nnc(Cc3ccccc3)[nH]2)COc2ccccc21` showed an intrinsic clearance, human liver microsomes of at most 4.74 mL/min/kg; an intrinsic clearance, rat liver microsomes of 104 mL/min/kg; an aqueous solubility of 41.5 µg/mL (≈ 110 µM).

For the compound `COc1ccc(C(=O)N2CCN(C(=O)/C=C/c3ccc(Br)cc3)CC2)cc1`, the MDR1-MDCK efflux ratio was 0.858.

Regarding `CN(CC1(CO)CCCC1)C(=O)CCN1CCCCC1=O`, the MDR1-MDCK efflux ratio worked out at 21.2; the intrinsic clearance, human liver microsomes was at most 4.74 mL/min/kg; the intrinsic clearance, rat liver microsomes came out at 113 mL/min/kg.

`CNC(=O)c1ccc2c(c1)CCO[C@H]2CCN1CCN(c2ccc(C(N)=O)cc2)CC1`: the MDR1-MDCK efflux ratio stood at 21.5; the intrinsic clearance, human liver microsomes was at most 4.74 mL/min/kg; the intrinsic clearance, rat liver microsomes was at most 10.7 mL/min/kg; the aqueous solubility amounted to 90 µg/mL (≈ 213 µM).

Take `Cc1cc(CSCc2ccc(C#N)cc2)no1`: the intrinsic clearance, human liver microsomes stood at 76.4 mL/min/kg and the intrinsic clearance, rat liver microsomes is 1010 mL/min/kg.

For `Cc1cc(C)c2ccc(C(=O)N3CCN(c4ncc[nH]c4=O)CC3)cc2n1`, the MDR1-MDCK efflux ratio came out at 65.9; the intrinsic clearance, human liver microsomes was at most 4.74 mL/min/kg; the intrinsic clearance, rat liver microsomes was 53.4 mL/min/kg.

On to `CSCC(=O)Nc1nc(-c2ccc(C3CCCCC3)cc2)cs1`, for which the MDR1-MDCK efflux ratio was found to be 0.695 and the aqueous solubility amounted to 0.37 µg/mL (≈ 1.07 µM).

With `CCN1CCN(Cc2ccc(Nc3ncc(F)c(-c4cc(F)c5nc(C)n(C(C)C)c5c4)n3)nc2)CC1.CS(=O)(=O)O`, the MDR1-MDCK efflux ratio came out at 61.4; the intrinsic clearance, human liver microsomes came out at 129 mL/min/kg; the intrinsic clearance, rat liver microsomes is 107 mL/min/kg; the aqueous solubility amounted to 48.2 µg/mL.

Regarding `Cc1ccc(NC(=O)c2cc(-c3ccccn3)nc3ccccc23)nc1`, the aqueous solubility amounted to 0.18 µg/mL (≈ 0.529 µM).

For `Cn1cc(NC(=O)c2cn(Cc3ccccc3)nn2)cn1`, the MDR1-MDCK efflux ratio came out at 1.03; the intrinsic clearance, human liver microsomes was at most 4.74 mL/min/kg; the intrinsic clearance, rat liver microsomes is at most 10.7 mL/min/kg; the aqueous solubility worked out at 23.4 µg/mL (≈ 82.8 µM).

`Cc1ccc(NC(=O)c2cccc3cccnc23)cc1` had an intrinsic clearance, human liver microsomes of 206 mL/min/kg; an intrinsic clearance, rat liver microsomes of 240 mL/min/kg; an aqueous solubility of 5.7 µg/mL (≈ 21.7 µM).

For `CN(Cc1cnc2ccccc2n1)S(=O)(=O)N1CCCC1`, the MDR1-MDCK efflux ratio was 0.702; the intrinsic clearance, human liver microsomes is 13.3 mL/min/kg; the intrinsic clearance, rat liver microsomes was 1600 mL/min/kg.
